Measured values: US5393768A, “Leukotriene antagonists” (Eli Lilly and Company, priority 1993, dated 1995)

Tests used:
[1] = target: T1, LTD4 evoked contractions of guinea pig ileum (Cavia porcellus, UniProt Q2NNR5); assay: LTD4 antagonism, cumulative concentration-response curves (Schild pA2); format: cell-based; conditions: 30 minute incubation, negative log of KB
T1 construct: A section of terminal ileum was removed, the lumen cleaned, and the tissue divided into 2.5 cm. segments; from tissue; host or cells: terminal ileum of male Hartley guinea pigs
T1 sequence (Q2NNR5 1-340): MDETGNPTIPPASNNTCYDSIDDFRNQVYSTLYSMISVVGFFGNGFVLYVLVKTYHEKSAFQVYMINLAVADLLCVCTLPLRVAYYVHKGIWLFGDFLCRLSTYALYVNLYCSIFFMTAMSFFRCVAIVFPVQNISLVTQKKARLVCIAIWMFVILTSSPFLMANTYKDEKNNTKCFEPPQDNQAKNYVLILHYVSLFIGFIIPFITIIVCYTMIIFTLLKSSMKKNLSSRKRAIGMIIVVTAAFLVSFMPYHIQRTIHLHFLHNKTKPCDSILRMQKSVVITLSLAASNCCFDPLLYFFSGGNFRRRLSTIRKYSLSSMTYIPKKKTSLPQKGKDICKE
Protocol: For some of the drugs in this series a more detailed analysis of LTD4 antagonism was made. In these experiments, cumulative concentration-response curves were obtained to LTD4 in guinea pig ileum and trachea. This was followed by a 30 minute incubation with various concentrations of the experimental drug. The concentration response curve to LTD4 was then repeated in the presence of the antagonist. Only one concentration of antagonist was used on a single tissue. KB values were calculated by the method of Furchgott [Ann. N.Y. Acad. Sci., 139, 553 (1967)] using the following equation. [formula]
Dose ratio refers to the concentration of agonist required to elicit 50 percent of the maximal response (ED50) in the presence of the antagonist divided by the ED50 in the absence of the antagonist. Calculations were performed with the aid of a computer and a digital plotter.

[2] = system: LTD4 evoked contractions of guinea pig ileum; assay: Percent inhibition of LTD4 evoked ileal contractions (single submaximal LTD4 response, 5 minute drug exposure); format: cell-based, guinea pig (male, Hartley); conditions: Cavia porcellus
Protocol: Male, Hartley guinea pigs weighing 200-450 grams were killed by decapitation. A section of terminal ileum was removed, the lumen cleaned, and the tissue divided into 2.5 cm. segments. The ilea were mounted in 10 ml. tissue baths containing Krebs-bicarbonate solution of the following composition in mmoles/-liter: KCl, 4.6; CaCl2 ·2H2 O, 1.2; KH2 PO4, 1.2; MgSO4 ·7H2 O, 1.2; NaCl, 118.2; NaHCO3, 24.8; and dextrose, 10.0. The bath fluid was maintained at 37° C. and aerated with 95 percent oxygen and 5 percent CO2. In addition, the buffer contained 1×10^-6 M atropine to reduce ileal spontaneous activity. Isometric measurements were made with a Grass FTO3C force-displacement transducer and recorded on a Grass polygraph as change in grams of force. A passive force of 0.5 g. was applied to the tissues. After an appropriate equilibration period, single submaximal control responses to pure LTD4 were obtained. Following a five minute exposure of the ileum to an experimental drug, the control concentration of LTD was added to the tissue bath. The response of the ileum to LTD4 in the presence of the drug was compared to the response in the absence of the drug.

Kb [1]: 17.4 nM
Structure (SMILES): CCCc1c(COc2ccc(C(C)(C)c3nnn[nH]3)cc2)ccc(C(C)=O)c1O [Example 37, 5-[4-(4-Acetyl-3-hydroxy-2-propylbenzyloxy)-α,α-dimethylbenzyl]-tetrazole]
inhibition at 0.1 µM ([2]; Compound concentration 1 × 10^-7 M): 81%
inhibition at 0.3 µM ([2]; Compound concentration 3 × 10^-7 M): 90%
inhibition at 0.03 µM ([2]; Compound concentration 3 × 10^-8 M): 56%
